Assay results published in ChEMBL document CHEMBL1201862, “PubChem BioAssay data set” (2004).
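Where inhibition never reached the appropriate level, the endpoint shown equals the highest concentration tested. Otherwise, values were interpolated linearly from a five-concentration, 48-hour dose response in 96-well plates. GI50 = concentration required for 50% inhibition of growth.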 The source made the active and inactive calls. Cut-off read from the data, not from the text of the source: active = GI50 up to about 1.1 µM and inactive = higher.

Assays:
Test in all cases: growth of human tumour cells (NCI), 48 h
PC-3 = test system: PC-3
U-251 = test system: U-251
A549 = test system: A549
Malme-3M = test system: Malme-3M
HCT-15 = test system: HCT-15
SR = test system: SR
UACC-62 = test system: UACC-62
A498 = test system: A498
K562 = test system: K562
IGROV-1 = test system: IGROV-1
LOX IMVI = test system: LOX IMVI
HOP-62 = test system: HOP-62
CAKI-1 = test system: CAKI-1
RPMI-8226 = test system: RPMI-8226
SF-539 = test system: SF-539
NCI-H460 = test system: NCI-H460
OVCAR-3 = test system: OVCAR-3
MOLT-4 = test system: MOLT-4
SK-OV-3 = test system: SK-OV-3
M14 = test system: M14
MDA-MB-435 = test system: MDA-MB-435
MDA-N = test system: MDA-N
HCC 2998 = test system: HCC 2998
Hs-578T = test system: Hs-578T
ACHN = test system: ACHN
MCF7 = test system: MCF7
HL-60 = test system: HL-60
CCRF-CEM = test system: CCRF-CEM
EKVX = test system: EKVX
KM12 = test system: KM12
SF-295 = test system: SF-295
SK-MEL-2 = test system: SK-MEL-2
SK-MEL-5 = test system: SK-MEL-5
COLO 205 = test system: COLO 205
OVCAR-5 = test system: OVCAR-5
SF-268 = test system: SF-268
MDA-MB-231 = test system: MDA-MB-231
RXF 393 = test system: RXF 393
SNB-19 = test system: SNB-19
NCI-H226 = test system: NCI-H226
HT-29 = test system: HT-29
SW-620 = test system: SW-620
DU-145 = test system: DU-145
NCI/ADR-RES = test system: NCI/ADR-RES
SNB-75 = test system: SNB-75
SK-MEL-28 = test system: SK-MEL-28
TK-10 = test system: TK-10
UO-31 = test system: UO-31
OVCAR-4 = test system: OVCAR-4
NCI-H23 = test system: NCI-H23
OVCAR-8 = test system: OVCAR-8
SN12C = test system: SN12C
T47D = test system: T47D
NCI-H522 = test system: NCI-H522
HCT-116 = test system: HCT-116
UACC-257 = test system: UACC-257
HOP-92 = test system: HOP-92
786-0 = test system: 786-0
BT-549 = test system: BT-549

C[N+](C)(CCO)CCN1c2ccccc2Sc2ccccc21
GI50 (PC-3): > 10 µM (inactive)
GI50 (U-251): > 10 µM (inactive)
GI50 (A549): > 10 µM (inactive)
GI50 (Malme-3M): > 10 µM (inactive)
GI50 (HCT-15): > 10 µM
GI50 (SR): > 10 µM (inactive)
GI50 (UACC-62): > 10 µM (inactive)
GI50 (A498): > 10 µM (inactive)
GI50 (K562): > 10 µM (inactive)
GI50 (IGROV-1): > 10 µM (inactive)
GI50 (LOX IMVI): > 10 µM (inactive)
GI50 (HOP-62): > 10 µM (inactive)
GI50 (CAKI-1): > 10 µM (inactive)
GI50 (RPMI-8226): > 10 µM (inactive)
GI50 (SF-539): > 10 µM (inactive)
GI50 (NCI-H460): > 10 µM (inactive)
GI50 (OVCAR-3): > 10 µM (inactive)
GI50 (MOLT-4): > 10 µM (inactive)
GI50 (SK-OV-3): > 10 µM (inactive)
GI50 (M14): > 10 µM (inactive)
GI50 (MDA-MB-435): > 10 µM (inactive)
GI50 (MDA-N): > 10 µM (inactive)
GI50 (HCC 2998): > 10 µM (inactive)
GI50 (Hs-578T): > 10 µM (inactive)
GI50 (ACHN): > 10 µM (inactive)
GI50 (MCF7): > 10 µM (inactive)
GI50 (HL-60): > 10 µM (inactive)
GI50 (CCRF-CEM): > 10 µM (inactive)
GI50 (EKVX): > 10 µM (inactive)
GI50 (KM12): > 10 µM (inactive)
GI50 (SF-295): > 10 µM (inactive)
GI50 (SK-MEL-2): > 10 µM (inactive)
GI50 (SK-MEL-5): > 10 µM (inactive)
GI50 (COLO 205): > 10 µM (inactive)
GI50 (OVCAR-5): > 10 µM (inactive)
GI50 (SF-268): > 10 µM (inactive)
GI50 (MDA-MB-231): > 10 µM (inactive)
GI50 (RXF 393): > 10 µM (inactive)
GI50 (SNB-19): > 10 µM (inactive)
GI50 (NCI-H226): > 10 µM (inactive)
GI50 (HT-29): > 10 µM (inactive)
GI50 (SW-620): > 10 µM (inactive)
GI50 (DU-145): > 10 µM (inactive)
GI50 (NCI/ADR-RES): > 10 µM (inactive)
GI50 (SNB-75): > 10 µM (inactive)
GI50 (SK-MEL-28): > 10 µM (inactive)
GI50 (TK-10): > 10 µM (inactive)
GI50 (UO-31): 3.52 µM (inactive)
GI50 (OVCAR-4): > 10 µM (inactive)
GI50 (NCI-H23): > 10 µM (inactive)
GI50 (OVCAR-8): > 10 µM (inactive)
GI50 (SN12C): > 10 µM (inactive)
GI50 (T47D): > 10 µM (inactive)
GI50 (NCI-H522): > 10 µM (inactive)
GI50 (HCT-116): > 10 µM (inactive)

CC(CC(C)(C)[N+](C)(C)C)[N+](C)(C)C (stereo not drawn)
GI50 (PC-3): > 100 µM (inactive)
GI50 (U-251): > 100 µM (inactive)
GI50 (A549): > 100 µM (inactive)
GI50 (Malme-3M): > 10 µM (inactive)
GI50 (UACC-257): > 100 µM (inactive)
GI50 (HCT-15): > 100 µM
GI50 (SR): > 100 µM (inactive)
GI50 (HOP-92): > 100 µM (inactive)
GI50 (UACC-62): > 100 µM (inactive)
GI50 (K562): > 100 µM (inactive)
GI50 (IGROV-1): > 100 µM (inactive)
GI50 (HOP-62): > 100 µM (inactive)
GI50 (CAKI-1): > 100 µM (inactive)
GI50 (RPMI-8226): > 100 µM (inactive)
GI50 (SF-539): > 100 µM (inactive)
GI50 (NCI-H460): > 100 µM (inactive)
GI50 (OVCAR-3): > 100 µM (inactive)
GI50 (MOLT-4): > 100 µM (inactive)
GI50 (SK-OV-3): > 100 µM (inactive)
GI50 (M14): > 100 µM (inactive)
GI50 (MDA-N): > 100 µM (inactive)
GI50 (HCC 2998): > 100 µM (inactive)
GI50 (ACHN): > 100 µM (inactive)
GI50 (MCF7): > 100 µM (inactive)
GI50 (HL-60): > 100 µM (inactive)
GI50 (CCRF-CEM): > 100 µM (inactive)
GI50 (EKVX): > 100 µM (inactive)
GI50 (KM12): > 100 µM (inactive)
GI50 (SF-295): > 100 µM (inactive)
GI50 (SK-MEL-5): > 100 µM (inactive)
GI50 (COLO 205): > 100 µM (inactive)
GI50 (OVCAR-5): > 100 µM (inactive)
GI50 (SF-268): > 100 µM (inactive)
GI50 (RXF 393): > 100 µM (inactive)
GI50 (SNB-19): > 100 µM (inactive)
GI50 (NCI-H226): > 100 µM (inactive)
GI50 (HT-29): > 100 µM (inactive)
GI50 (SW-620): > 100 µM (inactive)
GI50 (DU-145): > 100 µM (inactive)
GI50 (NCI/ADR-RES): > 100 µM (inactive)
GI50 (SNB-75): 88.9 µM (inactive)
GI50 (SK-MEL-28): > 100 µM (inactive)
GI50 (TK-10): > 100 µM (inactive)
GI50 (UO-31): > 100 µM (inactive)
GI50 (OVCAR-4): > 100 µM (inactive)
GI50 (786-0): > 100 µM (inactive)
GI50 (NCI-H23): > 100 µM (inactive)
GI50 (OVCAR-8): > 100 µM (inactive)
GI50 (SN12C): > 100 µM (inactive)
GI50 (BT-549): > 100 µM (inactive)
GI50 (NCI-H522): > 100 µM (inactive)
GI50 (HCT-116): > 100 µM (inactive)

O=C1OC(C2=CC(=O)c3ccccc3C2=O)C(Cl)=C1Cl (stereo not drawn)
GI50 (PC-3): 27.3 µM (inactive)
GI50 (U-251): 28.1 µM (inactive)
GI50 (A549): 89.5 µM (inactive)
GI50 (Malme-3M): 26.5 µM (inactive)
GI50 (UACC-257): 77.8 µM (inactive)
GI50 (HCT-15): 20 µM
GI50 (SR): 24 µM (inactive)
GI50 (HOP-92): 47 µM (inactive)
GI50 (UACC-62): 17.4 µM (inactive)
GI50 (A498): 42.8 µM (inactive)
GI50 (K562): 32.7 µM (inactive)
GI50 (LOX IMVI): 20.2 µM (inactive)
GI50 (HOP-62): 33.1 µM (inactive)
GI50 (CAKI-1): 67.9 µM (inactive)
GI50 (RPMI-8226): 19.5 µM (inactive)
GI50 (SF-539): 27.4 µM (inactive)
GI50 (NCI-H460): 56.8 µM (inactive)
GI50 (OVCAR-3): 33.1 µM (inactive)
GI50 (MOLT-4): 34.4 µM (inactive)
GI50 (SK-OV-3): 79.6 µM (inactive)
GI50 (M14): 39.3 µM (inactive)
GI50 (MDA-MB-435): 35.6 µM (inactive)
GI50 (MDA-N): 39.5 µM (inactive)
GI50 (HCC 2998): 25.1 µM (inactive)
GI50 (Hs-578T): 54.7 µM (inactive)
GI50 (ACHN): 15.8 µM (inactive)
GI50 (MCF7): 20.9 µM (inactive)
GI50 (HL-60): 35.9 µM (inactive)
GI50 (CCRF-CEM): 20 µM (inactive)
GI50 (EKVX): 37.8 µM (inactive)
GI50 (KM12): 77.4 µM (inactive)
GI50 (SF-295): 86.5 µM (inactive)
GI50 (SK-MEL-2): 14.1 µM (inactive)
GI50 (SK-MEL-5): 31.1 µM (inactive)
GI50 (COLO 205): 35 µM (inactive)
GI50 (OVCAR-5): 36.3 µM (inactive)
GI50 (SF-268): 27.2 µM (inactive)
GI50 (MDA-MB-231): 11.6 µM (inactive)
GI50 (RXF 393): 25.2 µM (inactive)
GI50 (SNB-19): 56.1 µM (inactive)
GI50 (NCI-H226): 27.2 µM (inactive)
GI50 (HT-29): 42 µM (inactive)
GI50 (SW-620): 35.2 µM (inactive)
GI50 (DU-145): 39.7 µM (inactive)
GI50 (NCI/ADR-RES): 31.5 µM (inactive)
GI50 (SNB-75): 37.2 µM (inactive)
GI50 (SK-MEL-28): 41 µM (inactive)
GI50 (TK-10): 66.7 µM (inactive)
GI50 (UO-31): 13.7 µM (inactive)
GI50 (786-0): 17.9 µM (inactive)
GI50 (NCI-H23): 24.4 µM (inactive)
GI50 (OVCAR-8): 13.7 µM (inactive)
GI50 (SN12C): 18.3 µM (inactive)
GI50 (T47D): 29.1 µM (inactive)
GI50 (NCI-H522): 15.9 µM (inactive)
GI50 (HCT-116): 32.4 µM (inactive)
